From patent publication EP4603105A1, “PHARMACEUTICAL COMPOSITION CONTAINING CYCLIC COMPOUND HAVING SELECTIVE KRAS INHIBITORY EFFECT AGAINST HRAS AND NRAS” (CHUGAI SEIYAKU KABUSHIKI KAISHA, priority 2022, dated 2024)
Where a SMILES comes first, the peptide text is derived from it. Bridges are numbered along the chain shown (N, C = ends). [ ]: non-standard residue; d: D form. The star is where a group is joined. hPhe(3-Cl-4-CF3) = N[C@@H](CCc1ccc(C(F)(F)F)c(Cl)c1)C(=O)O; NPrPhe(4-CF3) = CCCN[C@@H](Cc1ccc(C(F)(F)F)cc1)C(=O)O; NMeGly(cPent) = CN[C@H](C(=O)O)C1CCCC1; Pro(4,4-F2) = O=C(O)[C@@H]1CC(F)(F)CN1; NMeD = CN[C@@H](CC(=O)O)C(=O)O; NMeL = CN[C@@H](CC(C)C)C(=O)O; Morpholide = C1CN(*)CCO1; Ac5c = NC1(C(=O)O)CCCC1; Abu = CC[C@H](N)C(=O)O; NEtG = CCNCC(=O)O; Sar = CNCC(=O)O

Assays:
[1] = biological target: HRAS wild-type protein (Homo sapiens, UniProt P01112); experiment: Binding to HRAS by surface plasmon resonance (SPR), KD and KD ratio to KRAS
Chain of HRAS wild-type protein (P01112 whole entry): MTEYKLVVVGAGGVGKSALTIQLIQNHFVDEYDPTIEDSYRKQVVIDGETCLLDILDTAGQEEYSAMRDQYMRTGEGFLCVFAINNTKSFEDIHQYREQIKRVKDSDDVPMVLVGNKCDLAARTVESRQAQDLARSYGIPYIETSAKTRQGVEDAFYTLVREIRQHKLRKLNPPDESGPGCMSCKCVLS
In short: (§1)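 SPR, 30°C: Avi-biotin RAS·GDP captured via Biotin CAPture (~100–300 RU); running buffer HBS pH 7.4, 1 mM DTT, 10 mM MgCl2, 0.01% Tween 20, 10 µM GDP, 4% DMSO. Single-cycle kinetics, 100 µL/min, 75 s injections; 1:1 model → KD.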

[2] = system: human lung cancer strain NCI-H441; assay type: cell-based
In short: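 Proliferation was scored by […] measured after the reagent was added to cultures kept at 37°C in 5% carbon dioxide.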

[3] = biological target: GDP-bound NRAS wild-type protein (Homo sapiens, UniProt P01111); experiment: Binding to NRAS by surface plasmon resonance (SPR), KD and KD ratio to KRAS
Chain of GDP-bound NRAS wild-type protein (P01111 whole entry): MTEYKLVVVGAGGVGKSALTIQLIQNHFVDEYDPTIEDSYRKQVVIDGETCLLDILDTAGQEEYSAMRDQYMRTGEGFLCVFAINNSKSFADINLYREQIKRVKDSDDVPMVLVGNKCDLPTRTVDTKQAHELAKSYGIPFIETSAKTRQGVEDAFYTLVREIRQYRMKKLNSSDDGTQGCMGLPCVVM
In short: as §1

[4] = ratio of the KD value with respect to HRAS wild-type protein to the KD value with respect to KRAS
[5] = ratio of the KD value with respect to GDP-bound NRAS wild-type protein to the KD value with respect to KRAS
[6] = ratio of KD for HRAS wild-type protein to KD for KRAS
[7] = ratio of KD for GDP-bound NRAS wild-type protein to KD for KRAS

SMILES | IC50 [2] [nM] | HRAS /KRAS [1, 4] | NRAS /KRAS [3, 5] | HRAS /KRAS [1, 6] | NRAS /KRAS [3, 7] | HRAS /KRAS ([1]; ratio of KD value for HRAS wild-type protein to KD value for KRAS (SPR)) | NRAS /KRAS ([3]; ratio of KD value for GDP-bound NRAS wild-type protein to KD value for KRAS (SPR))
CCCN1C(=O)CN(C)C(=O)CN(CC)C(=O)[C@H]([C@@H](C)CC)NC(=O)[C@H](CC(C)C)N(C)C(=O)C[C@@H](C(=O)N2CCOCC2)N(C)C(=O)[C@H](C2CCCC2)N(C)C(=O)C2(CCCC2)NC(=O)[C@@H]2CC(F)(F)CN2C(=O)[C@H](CCc2ccc(C(F)(F)F)c(Cl)c2)NC(=O)CN(C)C(=O)[C@@H]1Cc1ccc(C(F)(F)F)cc1 [PP0399] ([NMeL]I[NEtG][Sar][NPrPhe(4-CF3)][Sar][hPhe(3-Cl-4-CF3)][Pro(4,4-F2)][Ac5c][NMeGly(cPent)][NMeD]-Morpholide; lactam N-11) | 6.3 | C (A compound having a KD ratio of 0.1 or more and less than 3 is denoted as C) | B (a compound having 3 or more and less than 10 is denoted as B) | – | – | – | –
CCCN1C(=O)CN(C)C(=O)CN(C)C(=O)[C@H](CC)NC(=O)[C@H](CC(C)C)N(C)C(=O)C[C@@H](C(=O)N2CCOCC2)N(C)C(=O)[C@H](C2CCCC2)N(C)C(=O)C2(CCCC2)NC(=O)[C@@H]2CCCN2C(=O)[C@H](CCc2ccc(C(F)(F)F)c(Cl)c2)NC(=O)CN(C)C(=O)[C@@H]1Cc1ccc(C(F)(F)F)cc1 [PP0248] ([NMeL][Abu][Sar][Sar][NPrPhe(4-CF3)][Sar][hPhe(3-Cl-4-CF3)]P[Ac5c][NMeGly(cPent)][NMeD]-Morpholide; lactam N-11) | 84 | – | – | B (a compound having 3 or more and less than 10 is denoted as B) | B (a compound having 3 or more and less than 10 is denoted as B) | – | –
CC[C@H](C)[C@@H]1NC(=O)[C@H](CC(C)C)N(C)C(=O)C[C@@H](C(=O)N2CCOCC2)N(C)C(=O)[C@H](C2CCCC2)N(C)C(=O)C2(CCCC2)NC(=O)[C@@H]2CCCN2C(=O)[C@H](CCc2cc(F)c(C(F)(F)F)c(F)c2)NC(=O)CN(C)C(=O)[C@H](Cc2ccc(C(F)(F)F)cc2)N2CCCC[C@@H](C2=O)N(C)C(=O)[C@@H]2CCCCN2C1=O [PP0548] | 501 | B (a compound having 3 or more and less than 10 is denoted as B) | C (A compound having a KD ratio of 0.1 or more and less than 3 is denoted as C) | – | – | – | –

Continued, in another order:

IC50 [2] [nM] | SMILES | HRAS /KRAS [1, 4] | NRAS /KRAS [3, 5] | HRAS /KRAS [1, 6] | NRAS /KRAS [3, 7] | HRAS /KRAS ([1]; ratio of KD value for HRAS wild-type protein to KD value for KRAS (SPR)) | NRAS /KRAS ([3]; ratio of KD value for GDP-bound NRAS wild-type protein to KD value for KRAS (SPR))
9.2 | CCC[C@H]1C(=O)N[C@@H]([C@@H](C)CC)C(=O)N(C)CC(=O)N(C)[C@H]2C/C=C\CCN(C2=O)[C@@H](Cc2ccc(C(F)(F)F)cc2)C(=O)N(C)CC(=O)N[C@@H](CCc2cc(F)c(C(F)(F)F)c(F)c2)C(=O)N2C[C@H](OCC)C[C@H]2C(=O)NC2(CC(C)(C)C2)C(=O)N(C)[C@@H](C2CCCC2)C(=O)N(C)[C@H](C(=O)N2CCC2)CC(=O)N1C [PP1943] | B (a compound having 3 or more and less than 10 is denoted as B) | A (a compound having 10 or more and less than 20 is denoted as A) | – | – | – | –
1.9 | CC[C@H](C)[C@@H]1NC(=O)[C@@H]2CCCCCc3ccc(cc3)C[C@@H](C(=O)N(C)CC(=O)N[C@@H](CCc3ccc(C(F)(F)F)c(OC)c3)C(=O)N3C[C@H](OC4CCC4)C[C@H]3C(=O)NC3(CC(C)(C)C3)C(=O)N(C)[C@@H](C3CCCC3)C(=O)N(C)[C@H](C(=O)N(C)C)CC(=O)N2C)N2CC/C=C\C[C@@H](C2=O)N(C)C(=O)CN(C)C1=O [PP3073] | – | – | A (a compound having 10 or more and less than 20 is denoted as A) | A (a compound having 10 or more and less than 20 is denoted as A) | – | –
12.3 | CC[C@H](C)[C@@H]1NC(=O)[C@H](CC)N(C)C(=O)C[C@@H](C(=O)N(C)C)N(C)C(=O)[C@H](C2CCCC2)N(C)C(=O)C2(CC(C)(C)C2)NC(=O)[C@@H]2C[C@H](C)CN2C(=O)[C@H](CCc2ccc(C(F)(F)F)c(Cl)c2)NC(=O)CN(C)C(=O)[C@H](Cc2ccc(C)cc2)N2CC/C=C\C[C@@H](C2=O)N(C)C(=O)CN(C)C1=O [PP1844] | – | – | – | – | B (a compound having 3 or more and less than 10 is denoted as B) | A (a compound having 10 or more and less than 20 is denoted as A)
57.3 | CCO[C@@H]1C[C@H]2C(=O)NC3(CCC3)C(=O)N(C)[C@@H](CC(C)C)C(=O)N(C)[C@H](C(=O)N(C)C)CC(=O)N(C)[C@@H](CC)C(=O)N[C@@H]([C@@H](C)CC)C(=O)N(C)CC(=O)N(C)[C@H]3C/C=C\CCN(C3=O)[C@@H](Cc3ccc(C(F)(F)F)cc3)C(=O)N(C)CC(=O)N[C@@H](CCc3cc(F)c(C(F)(F)F)c(F)c3)C(=O)N2C1 [PP1089] | – | – | A (a compound having 10 or more and less than 20 is denoted as A) | AA (a compound having 20 or more is denoted as AA) | – | –
